Molecules are shown by their SMILES.

For 25 compounds, IC50 results are on record in patent US10703756B2, “Pyrrolo[2,3-D]pyrimidinyl, pyrrolo[2,3-B]pyrazinyl, pyrrolo[2,3-B]pyridinyl acrylamides and epoxides thereof” (Pfizer Inc., priority 2015, dated 2020).

The target in assay [1] is T1, JAK3 enzyme (Homo sapiens, UniProt P52333).
T1 sequence (P52333 1-1124): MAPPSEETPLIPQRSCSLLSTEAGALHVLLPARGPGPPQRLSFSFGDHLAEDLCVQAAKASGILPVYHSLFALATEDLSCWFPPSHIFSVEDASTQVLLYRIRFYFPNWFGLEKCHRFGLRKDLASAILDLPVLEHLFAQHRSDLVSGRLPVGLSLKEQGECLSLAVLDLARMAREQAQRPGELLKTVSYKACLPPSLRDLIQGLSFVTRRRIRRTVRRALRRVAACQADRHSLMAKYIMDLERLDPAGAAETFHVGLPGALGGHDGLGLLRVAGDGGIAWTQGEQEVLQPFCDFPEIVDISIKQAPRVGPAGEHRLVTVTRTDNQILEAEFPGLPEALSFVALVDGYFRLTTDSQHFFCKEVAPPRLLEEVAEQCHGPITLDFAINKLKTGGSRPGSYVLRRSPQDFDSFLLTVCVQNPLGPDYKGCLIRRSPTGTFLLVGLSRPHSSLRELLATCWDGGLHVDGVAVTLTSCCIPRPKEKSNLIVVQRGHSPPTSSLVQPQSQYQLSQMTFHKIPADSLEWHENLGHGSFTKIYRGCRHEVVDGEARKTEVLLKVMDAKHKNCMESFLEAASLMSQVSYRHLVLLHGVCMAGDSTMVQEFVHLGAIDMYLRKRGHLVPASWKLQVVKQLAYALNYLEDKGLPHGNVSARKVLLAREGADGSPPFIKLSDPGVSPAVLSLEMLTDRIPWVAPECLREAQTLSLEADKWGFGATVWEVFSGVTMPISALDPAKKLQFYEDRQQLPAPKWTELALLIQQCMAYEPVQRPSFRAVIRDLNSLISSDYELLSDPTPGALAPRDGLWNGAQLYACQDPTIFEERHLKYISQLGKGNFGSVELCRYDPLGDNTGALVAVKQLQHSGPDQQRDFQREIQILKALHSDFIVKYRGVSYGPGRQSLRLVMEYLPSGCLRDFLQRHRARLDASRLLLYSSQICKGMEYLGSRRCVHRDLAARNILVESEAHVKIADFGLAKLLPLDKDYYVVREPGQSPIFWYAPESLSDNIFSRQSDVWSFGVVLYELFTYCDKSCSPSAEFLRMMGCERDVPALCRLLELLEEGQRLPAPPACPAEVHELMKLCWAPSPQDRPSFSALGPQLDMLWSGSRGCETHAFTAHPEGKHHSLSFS
The assay can be described thus: JAK Caliper Enzyme Assay at 1 mM ATP. In kind it is biochemical. As for the experimental part:
(§1) Test article was solubilized in dimethyl sulfoxide (DMSO) to a stock concentration of 30 mM. An 11-point half log dilution series was created in DMSO with a top concentration of 600 μM. […] Test article and assay controls were added to a 384-well plate. […] Enzyme concentrations and incubation times were optimized for each new enzyme preps and were modified slightly over time to ensure 20%-30% phosphorylation. […] The assay plates were placed on a Caliper Life Science Lab Chip 3000 (LC3000) instrument, and each well was sampled using appropriate separation conditions to measure the unphosphorylated and phosphorylated peptide.

In assay [2] the target is T1, JAK3 enzyme. The assay can be described thus: JAK Caliper Enzyme Assay at 4 μM ATP. Type of assay: biochemical. How it is done:
as §1

By IC50 is commonly meant the point on the concentration scale where inhibition reaches its midpoint. Read a high IC50 as weaker potency. Regarding `C=CC(=O)N1C[C@H](Nc2ncnc3[nH]ccc23)CC[C@@H]1CNC(C)=O` (single isomer, unassigned) [Example 89], the values for the IC50 on JAK3 enzyme [1] and against JAK3 enzyme [2] were 7670 nM and 76.4 nM, respectively.

Turning to `C=CC(=O)N1C[C@H](Nc2ncnc3[nH]ccc23)CC[C@@H]1COC` (single isomer, unassigned) [Example 92], the 50% inhibitory concentration (IC50) on JAK3 enzyme [1] turned out to be 2440 nM; at JAK3 enzyme [2], 20.9 nM.

Turning to `C=CC(=O)N1C[C@@H](Nc2ncnc3[nH]ccc23)CC[C@H]1COC` (single isomer, unassigned) [Example 93], the IC50 against JAK3 enzyme [1] is more than 3160 nM; at JAK3 enzyme [2], 711 nM.

In the case of `C=CC(=O)N1C[C@@H](Nc2ncnc3[nH]ccc23)CC[C@H]1COC` (single isomer, unassigned) [Example 96], the IC50 against JAK3 enzyme [1] was more than 10000 nM; against JAK3 enzyme [2], 433 nM.

In the case of `C=CC(=O)N1C[C@H](CO)C[C@H](Nc2ncnc3[nH]ccc23)C1` (single isomer, unassigned) [Example 99], the half-maximal inhibitory concentration (IC50) was found to be 8990 nM on JAK3 enzyme [1] and 89.2 nM against JAK3 enzyme [2].

In the case of `C=CC(=O)N1C[C@H](Nc2ncnc3[nH]ccc23)CC[C@H]1[C@@H](C)O` (single isomer, unassigned) [Example 110], the IC50 was more than 10000 nM against JAK3 enzyme [1] and 867 nM against JAK3 enzyme [2].

Turning to `C=CC(=O)N1CCC(Oc2cnc3[nH]cc([C@H](C)O)c3n2)CC1` (single isomer, unassigned) [Example 118], the IC50 stood at 1890 nM on JAK3 enzyme [1] and 16.1 nM at JAK3 enzyme [2].

On to `C=CC(=O)N1CC[C@H](Nc2cnc3[nH]cc(C(=O)NCC(F)(F)F)c3n2)C1` (single isomer, unassigned) [Example 254], for which the IC50 came out at 2540 nM on JAK3 enzyme [1] and 17.2 nM at JAK3 enzyme [2].

For the compound `C=CC(=O)N1CC[C@H](Nc2cnc3[nH]cc(C(=O)NCCC(F)(F)F)c3n2)C1` (single isomer, unassigned) [Example 255], the figures for the IC50 against JAK3 enzyme [1] and against JAK3 enzyme [2] were 846 nM and 6.37 nM, respectively.

Take `C=CC(=O)N1CC[C@@H](Nc2cnc3[nH]cc(C(=O)N[C@@H](C)COC)c3n2)[C@@H](OC)C1` (single isomer, unassigned) [Example 355]: the concentration for half-maximal inhibition (IC50) on JAK3 enzyme [1] is 30 nM; against JAK3 enzyme [2] it was 0.327 nM.

In the case of `C=CC(=O)N1CC[C@H](Nc2cnc3[nH]cc(C(=O)N[C@@H](C)COC)c3n2)[C@H](OC)C1` (single isomer, unassigned) [Example 356], the 50% inhibitory concentration (IC50) against JAK3 enzyme [1] turned out to be 831 nM; against JAK3 enzyme [2] it was 4.07 nM.

In the case of `C=CC(=O)N1CCN(c2cnc3[nH]cc(C(=O)N[C@@H]4COC[C@@H]4c4ccc(F)cc4)c3n2)CC1(C)C` (stereo in doubt) [Example 143, 2-(4-acryloyl-3,3-dimethylpiperazin-1-yl)-N-[4-(4-fluorophenyl)tetrahydrofuran-3-yl]-5H-pyrrolo[2,3-b]pyrazine-7-carboxamide], the results for the IC50 at JAK3 enzyme [1] and against JAK3 enzyme [2] were 1920 nM and 22.6 nM, respectively.

Take `C=CC(=O)N1C[C@@H](C)[C@@H](Nc2cnc3[nH]cc(C(=O)NCC)c3n2)C1` (stereo in doubt) [Example 248, 2-[(1-acryloyl-4-methylpyrrolidin-3-yl)amino]-N-ethyl-5H-pyrrolo[2,3-b]pyrazine-7-carboxamide]: the half-maximal inhibitory concentration (IC50) on JAK3 enzyme [1] was found to be 5330 nM; on JAK3 enzyme [2], 48.7 nM.

On to `C=CC(=O)N1C[C@@H](C)[C@@H](Nc2cnc3[nH]cc(C(=O)NCCOC)c3n2)C1` (stereo in doubt) [Example 253, 2-[(1-acryloyl-4-methylpyrrolidin-3-yl)amino]-N-(2-methoxyethyl)-5H-pyrrolo[2,3-b]pyrazine-7-carboxamide], for which the half-inhibitory concentration (IC50) against JAK3 enzyme [1] amounted to 7680 nM; against JAK3 enzyme [2], 72 nM.

Take `C=CC(=O)N1C[C@H](C)[C@H](Nc2cnc3[nH]cc(C(=O)NCC)c3n2)C1` (stereo in doubt) [Example 260, 2-[(1-acryloyl-4-methylpyrrolidin-3-yl)amino]-N-ethyl-5H-pyrrolo[2,3-b]pyrazine-7-carboxamide]: the 50% inhibitory concentration (IC50) was 676 nM against JAK3 enzyme [1] and 2.14 nM against JAK3 enzyme [2].

`C=CC(=O)N1CC[C@@H](Oc2cnc3[nH]cc(C(=O)N[C@@H](C)COC)c3n2)C1` [Example 53, 2-{[(3R)-1-acryloylpyrrolidin-3-yl]oxy}-N-[(2S)-1-methoxypropan-2-yl]-5H-pyrrolo[2,3-b]pyrazine-7-carboxamide]: the IC50 at JAK3 enzyme [1] was 4000 nM; at JAK3 enzyme [2], 31.2 nM.

For `C=CC(=O)N1CCC(N(C)c2cnc3[nH]cc(C(=O)N4CCC4)c3n2)CC1` [Example 62, 1-(4-{[7-(azetidin-1-ylcarbonyl)-5H-pyrrolo[2,3-b]pyrazin-2-yl](methyl)amino}piperidin-1-yl)prop-2-en-1-one], the IC50 is 2700 nM at JAK3 enzyme [1] and 13.5 nM at JAK3 enzyme [2].

`C=CC(=O)N1CCN(c2cnc3[nH]cc(C(=O)N[C@H](C)COC)c3n2)CC1(C)COC` (stereo partly drawn) [Example 63, 2-(4-acryloyl-3-(methoxymethyl)-3-methylpiperazin-1-yl)-N-((R)-1-methoxypropan-2-yl)-5H-pyrrolo[2,3-b]pyrazine-7-carboxamide]: the IC50 on JAK3 enzyme [1] worked out at 379 nM; at JAK3 enzyme [2], 2.44 nM.

On to `C#CCNC(=O)c1c[nH]c2ncc(N3CCN(C(=O)C=C)C(C)(C)C3)nc12` [Example 83, 2-(4-acryloyl-3,3-dimethylpiperazin-1-yl)-N-(prop-2-yn-1-yl)-5H-pyrrolo[2,3-b]pyrazine-7-carboxamide], for which the IC50 was 1110 nM at JAK3 enzyme [1] and 10.7 nM at JAK3 enzyme [2].

For `C=CC(=O)N1CCC(Oc2cnc3[nH]cc(C#N)c3n2)CC1` [Example 114, 2-[(1-Acryloylpiperidin-4-yl)oxy]-5H-pyrrolo[2,3-b]pyrazine-7-carbonitrile], the half-maximal inhibitory concentration (IC50) is 3810 nM on JAK3 enzyme [1] and 19.7 nM on JAK3 enzyme [2].

With `C=CC(=O)N1CCC(Oc2cnc3[nH]cc(-c4n[nH]c(C(C)C)n4)c3n2)CC1` [Example 116, 1-[4-({7-[5-(Propan-2-yl)-1H-1,2,4-triazol-3-yl]-5H-pyrrolo[2,3-b]pyrazin-2-yl}oxy)piperidin-1-yl]prop-2-en-1-one], the IC50 against JAK3 enzyme [1] stood at 2550 nM; against JAK3 enzyme [2], 14.7 nM.

For the compound `C=CC(=O)N1CCC(Oc2cnc3[nH]cc(-c4ncnn4C)c3n2)CC1` [Example 122, 1-(4-{[7-(1-Methyl-1H-1,2,4-triazol-5-yl)-5H-pyrrolo[2,3-b]pyrazin-2-yl}oxy)piperidin-1-yl]prop-2-en-1-one], the half-maximal inhibitory concentration (IC50) is 1470 nM against JAK3 enzyme [1] and 8.97 nM on JAK3 enzyme [2].

In the case of `C=CC(=O)N1CCC(Oc2cnc3[nH]cc(-c4ncn(CC)n4)c3n2)CC1` [Example 125, 1-(4-{[7-(1-Ethyl-1H-1,2,4-triazol-3-yl)-5H-pyrrolo[2,3-b]pyrazin-2-yl]oxy}piperidin-1-yl)prop-2-en-1-one], the results for the half-inhibitory concentration (IC50) against JAK3 enzyme [1] and on JAK3 enzyme [2] were 1880 nM and 7.82 nM, respectively.

Take `C=CC(=O)N1CCC(Oc2cnc3[nH]cc(-c4ncn(C)n4)c3n2)CC1` [Example 126, 1-(4-{[7-(1-Methyl-1H-1,2,4-triazol-3-yl)-5H-pyrrolo[2,3-b]pyrazin-2-yl]oxy}piperidin-1-yl)prop-2-en-1-one]: the IC50 on JAK3 enzyme [1] was 3530 nM; at JAK3 enzyme [2], 14.9 nM.

For `C=CC(=O)N1CCC(Nc2cnc3[nH]cc(S(=O)(=O)NC(C)C)c3n2)CC1` [Example 127, 2-[(1-Acryloylpiperidin-4-yl)amino]-N-(propan-2-yl)-5H-pyrrolo[2,3-b]pyrazine-7-sulfonamide], the figures for the IC50 on JAK3 enzyme [1] and at JAK3 enzyme [2] were 1080 nM and 9.43 nM, respectively.
